According to US20250042912A1, “NOVEL NON-FLUORINATED QUINOLONE COMPOUND AND USE THEREOF” (priority 2021, published 2025):
≈ marks a conversion by molar mass, not a printed value. Structures can show the parent of a compound that is named as a salt.

What was measured:
Assay type in all cases: cell-based
[1] = tested on: Staphylococcus epidermidis ATCC 12228; experiment: Minimum inhibitory concentration (MIC) assay, Staphylococcus epidermidis ATCC 12228; conditions: ATCC12228, aerobic culture 35+/-2°C, 16 to 20 hours, read with naked eyes
Procedure: (§1) On the day of the experiment, the compound in the flask was dissolved in 100% DMSO until the concentration of mother liquor was 0.4 mg/mL. If the mother liquor was not used on the same day, it was stored at −80° C. for future use.
(§2) The compound mother liquor and standard antibiotics were subjected to 2-fold gradient dilution with corresponding solvents on a 96-microwell plate (V-bottom) to obtain 100× working solutions (Well 1 to Well 7) in sequence. Among them, the concentrations of the compound were 400 μg/mL, 200 μg/mL, 100 μg/mL, 50 μg/mL, 25 μg/mL, 12.5 μg/mL, 6.25 μg/mL, and 3.125 μg/mL. 100% DMSO was used as growth control (Well 8). As such, the compound motherplate was obtained.
(§3) One day before the experiment, aerobic bacteria (Staphylococcus epidermidis) stored in a cryogenic tube at −80° C. were scribed on an MHA (Cation-adjusted Mueller-Hinton agar) plate. The aerobic bacteria were placed in a 35+/−2° C. incubator for 18-24 hours of aerobic cultivation.
(§4) On the day of the experiment, the plate was taken out, clones were picked from the plate and suspended in physiological saline. Then, the turbidity of the bacterial suspension (containing 1.0-2.0×10^8 CFU/mL) was adjusted to OD600=0.2 by a turbidity meter. Then, the adjusted bacterial suspension was diluted to an appropriate concentration with the assay culture medium: about 5×10^5 CFU/mL for aerobic bacteria, and about 1×10^6 CFU/mL for anaerobic bacteria. As such, the inoculating solution was obtained.
(§5) 2 μl of 2-fold series dilution of 100× high-concentration working solution was transferred from a compound mother plate (prepared in step 1) to a round-bottom 96-well plate, and then 198 μL of bacterial inoculating solution (prepared in step 2) was added to each well to obtain an MIC assay plate. Therefore, the final assay concentrations of the compound were 4 μg/mL, 2 μg/mL, 1 μg/mL, 0.5 μg/mL, 0.25 μg/mL, 0.125 μg/mL, 0.06 μg/mL and 0.03 μg/mL. The total volume of each well on the assay plate was 200 μL: containing 1% DMSO, about 5×10^5 CFU/mL of aerobic bacteria and about 1×10^6 CFU/mL of anaerobic bacteria.
(§6) All assay plates for aerobic bacteria were aerobically cultured at 35+/−2° C. for 16 to 20 hours, and all assay plates for anaerobic bacteria were anaerobically cultured in an anaerobic incubator at 35+/−2° C. for 48 hours.

[2] = tested on: Propionibacterium acnes ATCC 6919; experiment: Minimum inhibitory concentration (MIC) assay, Propionibacterium acnes ATCC 6919; conditions: Cutibacterium acnes, ATCC6919; anaerobic culture 35+/-2°C, 48 hours; read with naked eyes
Procedure: (§7) On the day of the experiment, the compound in the flask was dissolved in 100% DMSO until the concentration of mother liquor was 0.4 mg/mL. If the mother liquor was not used on the same day, it was stored at −80° C. for future use. The compound mother liquor and standard antibiotics were subjected to 2-fold gradient dilution with corresponding solvents on a 96-microwell plate (V-bottom) to obtain 100× working solutions (Well 1 to Well 7) in sequence. Among them, the concentrations of the compound were 400 μg/mL, 200 μg/mL, 100 μg/mL, 50 μg/mL, 25 μg/mL, 12.5 μg/mL, 6.25 μg/mL, and 3.125 μg/mL. 100% DMSO was used as growth control (Well 8). As such, the compound motherplate was obtained. Two days before the experiment, anaerobic bacteria (Propionibacterium acnes) stored in a cryogenic tube at −80° C. were scribed on an MBA (Brucella Agar+5% (v/v) defibrillated sheep blood+[…] Hemin+1 μg/mLVitamin K1) plate. The anaerobic bacteria were placed in a 35+/−2° C. anaerobic incubator for 42-48 hours of cultivation. On the day of the experiment, the plate was taken out, clones were picked from the plate and suspended in physiological saline. Then, the turbidity of the bacterial suspension (containing 1.0-2.0×10^8 CFU/mL) was adjusted to OD600=0.2 by a turbidity meter. Then, the adjusted bacterial suspension was diluted to an appropriate concentration with the assay culture medium: about 5×10^5 CFU/mL for aerobic bacteria, and about 1×10^6 CFU/mL for anaerobic bacteria. As such, the inoculating solution was obtained. […] Therefore, the final assay concentrations of the compound were 4 μg/mL, 2 μg/mL, 1 μg/mL, 0.5 μg/mL, 0.25 μg/mL, 0.125 μg/mL, 0.06 μg/mL and 0.03 μg/mL. The total volume of each well on the assay plate was 200 μL: containing 1% DMSO, about 5×10^5 CFU/mL of aerobic bacteria and about 1×10^6 CFU/mL of anaerobic bacteria. All assay plates for aerobic bacteria were aerobically cultured at 35+/−2° C. for 16 to 20 hours, and all assay plates for anaerobic bacteria were anaerobically cultured in an anaerobic incubator at 35+/−2° C. for 48 hours. Note: for anaerobic bacteria, both the preparation of bacterial solution in step 2 and the inoculation of bacterial solution in step 3 were operated in an anaerobic workstation.

[3] = tested on: Propionibacterium acnes ATCC 11827; experiment: Minimum inhibitory concentration (MIC) assay, Propionibacterium acnes ATCC 11827; conditions: Cutibacterium acnes, ATCC11827; anaerobic culture 35+/-2°C, 48 hours; read with naked eyes
Procedure: as §7

[4] = tested on: Staphylococcus epidermidis ATCC 35983; experiment: Minimum inhibitory concentration (MIC) assay, Staphylococcus epidermidis ATCC 35983; conditions: ATCC35983, aerobic culture 35+/-2°C, 16 to 20 hours, read with naked eyes
Procedure: as §1, §2, §3, §4, §5, §6

[5] = tested on: Staphylococcus epidermidis ATCC 35984; experiment: Minimum inhibitory concentration (MIC) assay, Staphylococcus epidermidis ATCC 35984; conditions: ATCC35984, aerobic culture 35+/-2°C, 16 to 20 hours, read with naked eyes
Procedure: as §1, §2, §3, §4, §5, §6

| SMILES | MIC [1] [µg/mL] | MIC [2] [µg/mL] | MIC [3] [µg/mL] | MIC [4] [µg/mL] | MIC [5] [µg/mL] |
| --- | --- | --- | --- | --- | --- |
| Cc1cc2c(cn1)-c1ccc3c(=O)c(C(=O)O)cn(C4CC4)c3c1COC2 [Sodium salt of Compound 10] | 0.06 | 0.125 | 0.125 | 0.06 | ≤ 0.03 |
| CNc1ccc2c(n1)COCc1c-2ccc2c(=O)c(C(=O)O)cn(C3CC3)c12 [Hydrochloride of Compound 1] | 0.5 | 0.25 | 0.25 | 0.25 | 0.5 |
| CC1(C)OC[C@H](CNc2cc3c(cn2)-c2ccc4c(=O)c(C(=O)O)cn(C5CC5)c4c2COC3)O1 [Compound 26] | 0.25 (≈ 0.524 µM) | 0.5 (≈ 1.05 µM) | 0.5 (≈ 1.05 µM) | 0.25 (≈ 0.524 µM) | 0.25 (≈ 0.524 µM) |
| O=C(O)c1cn(C2CC2)c2c3c(ccc2c1=O)-c1c[nH]c(=O)cc1COC3 [Compound 21] | 1 (≈ 2.74 µM) | 0.5 (≈ 1.37 µM) | 1 (≈ 2.74 µM) | 1 (≈ 2.74 µM) | 2 (≈ 5.49 µM) |
| O=C(O)c1cn(C2CC2)c2c3c(ccc2c1=O)-c1cc2nc[nH]c2cc1COC3 [Compound 3] | 0.06 (≈ 0.155 µM) | 0.06 (≈ 0.155 µM) | 0.06 (≈ 0.155 µM) | 0.06 (≈ 0.155 µM) | 0.06 (≈ 0.155 µM) |
| N=C(N)NOCCOCCNc1cc2c(cn1)-c1ccc3c(=O)c(C(=O)O)cn(C4CC4)c3c1COC2 [Hydrochloride of Compound 29] | 2 | 2 | 1 | 2 | 1 |
| CNc1cc2c(cn1)-c1ccc3c(=O)c(C(=O)O)cn(C4CC4)c3c1COC2 [Trifluoroacetate of Compound 2] | 0.06 | 0.125 | 0.25 | 0.06 | 0.06 |
| Nc1cc2c(cn1)-c1ccc3c(=O)c(C(=O)O)cn(C4CC4)c3c1COC2 [Trifluoroacetate of Compound 7] | 0.06 | 0.125 | 0.25 | 0.03 | 0.03 |
| O=C(O)c1cn(C2CC2)c2c3c(ccc2c1=O)-c1cnccc1COC3 [Trifluoroacetate of Compound 11] | 0.03 | 0.5 | 0.25 | 0.06 | 0.125 |
| Nc1ncc2c(n1)COCc1c-2ccc2c(=O)c(C(=O)O)cn(C3CC3)c12 [Trifluoroacetate of Compound 9] | 0.03 | 0.25 | 0.25 | 0.06 | 0.125 |
| CNc1cc2c(cn1)-c1ccc3c(=O)c(C(=O)O)cn(C4CC4)c3c1C=CC2 [Compound 4] | 0.125 (≈ 0.335 µM) | 0.5 (≈ 1.34 µM) | 0.5 (≈ 1.34 µM) | 0.125 (≈ 0.335 µM) | 0.06 (≈ 0.161 µM) |
| COc1cc2c(cn1)-c1ccc3c(=O)c(C(=O)O)cn(C4CC4)c3c1COC2 [Compound 5] | 0.06 (≈ 0.159 µM) | 0.06 (≈ 0.159 µM) | 0.06 (≈ 0.159 µM) | 0.06 (≈ 0.159 µM) | 0.06 (≈ 0.159 µM) |
| CN(C[C@H]1COC(C)(C)O1)c1cc2c(cn1)-c1ccc3c(=O)c(C(=O)O)cn(C4CC4)c3c1COC2 [Compound 25] | 0.25 (≈ 0.509 µM) | 0.25 (≈ 0.509 µM) | 0.25 (≈ 0.509 µM) | 0.5 (≈ 1.02 µM) | 0.25 (≈ 0.509 µM) |

The remaining lines, values ahead:

| MIC [1] [µg/mL] | MIC [2] [µg/mL] | MIC [3] [µg/mL] | MIC [4] [µg/mL] | MIC [5] [µg/mL] | SMILES |
| --- | --- | --- | --- | --- | --- |
| 0.12 | 0.12 | 0.25 | 0.12 | ≤ 0.06 | CN(CC(F)F)c1cc2c(cn1)-c1ccc3c(=O)c(C(=O)O)cn(C4CC4)c3c1COC2 [Trifluoroacetate of Compound 23] |
| 0.06 | 0.06 | 0.125 | 0.06 | 0.03 | CCNc1cc2c(cn1)-c1ccc3c(=O)c(C(=O)O)cn(C4CC4)c3c1COC2 [Trifluoroacetate of Compound 14] |
| 0.25 | 0.25 | 0.25 | 0.25 | 0.12 | O=C(O)c1cn(C2CC2)c2c3c(ccc2c1=O)-c1cnc(NC[C@H](O)CO)cc1COC3 [Trifluoroacetate of Compound 22] |
| 0.06 | 0.06 | 0.125 | 0.06 | 0.06 | O=C(O)c1cn(C2CC2)c2c3c(ccc2c1=O)-c1cnc(NCCO)cc1COC3 [Trifluoroacetate of Compound 12] |
| 0.06 | 0.125 | 0.5 | 0.06 | 0.06 | O=C(O)c1cn(C2CC2)c2c3c(ccc2c1=O)-c1cnc(NCc2ccccc2)cc1COC3 [Trifluoroacetate of Compound 15] |
| 0.06 | 0.5 | 0.5 | 0.06 | 0.06 | O=C(O)c1cn(C2CC2)c2c3c(ccc2c1=O)-c1cnc(NCC2CCC2)cc1COC3 [Trifluoroacetate of Compound 16] |
| 0.06 | 0.125 | 0.25 | 0.06 | 0.06 | CCCNc1cc2c(cn1)-c1ccc3c(=O)c(C(=O)O)cn(C4CC4)c3c1COC2 [Trifluoroacetate of Compound 13] |
| 2 | 2 | 2 | 1 | 1 | NCCNc1cc2c(cn1)-c1ccc3c(=O)c(C(=O)O)cn(C4CC4)c3c1COC2 [Trifluoroacetate of Compound 19] |
| 0.125 | 1 | 2 | 0.125 | 0.125 | CNc1cc2c(cn1)-c1ccc3c(=O)c(C(=O)O)cn(C4CC4)c3c1CCC2 [Trifluoroacetate of Compound 20] |
| 0.5 | 1 | 1 | 0.5 | 0.5 | N=C(N)Nc1cc2c(cn1)-c1ccc3c(=O)c(C(=O)O)cn(C4CC4)c3c1COC2 [Trifluoroacetate of Compound 27] |
